The results in this text go back to US9585892B2, “Solid forms comprising N-(5-tert-butyl-isoxazol-3-yl)-N′-{4-[7-(2-morpholin-4-yl-ethoxy)imidazo[2,1-b][1,3]benzothiazol-2-yl]phenyl}urea, compositions thereof, and uses therewith” (AMBIT BIOSCIENCES CORPORATION, priority 2007, dated 2017).

What all share (type): physicochemical
A short description of series [1]: Stress experiments (temperature or relative humidity, XRPD after stress). As to the method: Stress Experiments. Solids were stressed under different temperature or relative humidity (RH) environments for a measured time period. Specific RH values were achieved by placing the sample inside sealed chambers containing saturated salt solutions. The salt solutions were selected and prepared following an ASTM standard procedure. Samples were analyzed by XRPD immediately after removal from the stress environment.
X-ray powder diffraction analyses were performed on an Inel XRG-3000 diffractometer, equipped with a curved position-sensitive detector with a […] of 120°. Real time data was collected using Cu Kα radiation starting at approximately 4 ° 2θ at a resolution of 0.03 ° 2θ. The tube voltage and amperage were set to 40 kV and 30 mA, respectively. […] Samples were prepared for analysis by packing them into thin-walled glass capillaries. Each capillary was mounted onto a goniometer head that is motorized to permit spinning of the capillary during data acquisition. Instrument calibration was performed daily using a silicon reference standard.

A short description of series [2]: Solubility measurements (solvent aliquot addition, visual inspection). To be noted: read-out: Approximate Solubility. As to the method: A weighed sample was treated with aliquots of the test solvent at room temperature or elevated temperature. Complete dissolution of the test material was determined by visual inspection. Solubility was estimated based on the total solvent used to provide complete dissolution. The actual solubility may be greater than the value calculated because of the use of solvent aliquots that were too large or due to a slow rate of dissolution. […] If complete dissolution was achieved as a result of only one aliquot addition, the solubility is expressed as “greater than.”

A short description of series [3]: Dynamic vapor sorption/desorption (moisture balance). The note with it: for post-moisture balance XRPD (resulting material): after sorption/desorption cycle 5-95-5% RH; for weight loss upon initial equilibration: equilibrium at 5% RH; for weight loss on desorption: from 95 to 5% RH. As to the method:
Data were collected on a VTI SGA-100 moisture balance system. For sorption isotherms, a sorption range of about 5 to about 95% relative humidity (RH) and a desorption range of about 95 to about 5% RH in 10% RH increments were used for analysis. The samples were not dried prior to analysis. Equilibrium criteria used for analysis were less than 0.0100% weight change in 5 minutes with a maximum equilibration time of 3 hours if the weight criterion was not met. Data were not corrected for the initial moisture content of the samples.

The mark [4] stands for this setting: Oven: 40° C., 4 days, listed as A.
Where [5] appears, read: 75% RH, ambient temperature, 5 days.

Entries after “also recorded” stand apart in the source; their conditions may differ. Where a name gives a salt, the structure may show the parent alone. Read-outs that look alike come from different tables or passages of the source.

As usually defined, the solubility is the concentration that dissolves in the medium under given conditions.

For `CC(C)(C)c1cc(NC(=O)Nc2ccc(-c3cn4c(n3)sc3cc(OCCN5CCOCC5)ccc34)cc2)no1` [Form A of the HCl salt of Compound B1, N-(5-tert-butyl-isoxazol-3-yl)-N′-{4-[7-(2-morpholin-4-yl-ethoxy)imidazo[2,1-b][1,3]benzothiazol-2-yl]phenyl}urea], the weight gain in series [1] (75% RH, 1 day) is 1 day: 4.2% weight gain; in series [1] (75% RH, 2 days), 2 days: 3.8% weight gain. The “XRPD Result after stress” value is “Form D” in series [1] (75% RH, ambient temperature, 4 days); “mixture of Form A and Form E” in series [1] (Oven: 40° C., 4 days); “A + E” in series [1] (setting [4]). Besides, the weight loss in series [1] (setting [4]) is reported as 4 days: 3.0% weight loss. Moreover, the solubility in series [2] (1,4-dioxane, organic solvent or mixture, thermodynamic from solid, 1,4-Dioxane, Ambient) was less than 2000 µg/mL; in series [2] (2-butanone, organic solvent or mixture, thermodynamic from solid, 2-Butanone, Ambient), less than 2000 µg/mL; in series [2] (acetone, organic solvent or mixture, thermodynamic from solid, Acetone, Ambient) it was less than 2000 µg/mL; in series [2] (acetonitrile, organic solvent or mixture, thermodynamic from solid, Acetonitrile (ACN), Ambient), less than 2000 µg/mL; in series [2] (acetonitrile/water (1:1), 60 °C, aqueous with cosolvent or surfactant or cyclodextrin, thermodynamic from solid, ACN/water (1:1), 60° C.) it was no less than 110000 µg/mL; in series [2] (dichloromethane, organic solvent or mixture, thermodynamic from solid, Dichloromethane (DCM), Ambient), less than 2000 µg/mL. In addition, the solubility in series [2] (ethanol, organic solvent or mixture, thermodynamic from solid, Ethanol (EtOH), Ambient) is 1000 µg/mL; in series [2] (ethanol/water (4:1), 60 °C, organic solvent or mixture, thermodynamic from solid, Ethanol/water (4:1), 60° C.), no less than 39000 µg/mL; in series [2] (ethanol/water (24:1), 60 °C, organic solvent or mixture, thermodynamic from solid, Ethanol/water (24:1), 60° C.), less than 2000 µg/mL; in series [2] (ethyl acetate, organic solvent or mixture, thermodynamic from solid, Ethyl Acetate (EtOAc), Ambient), less than 2000 µg/mL; in series [2] (isopropanol, organic solvent or mixture, thermodynamic from solid, Isopropanol (IPA), Ambient), less than 2000 µg/mL; in series [2] (isopropanol/water (24:1), 60 °C, organic solvent or mixture, thermodynamic from solid, Isopropanol/water (24:1), 60° C.) it was less than 2000 µg/mL. The solubility in series [2] (methanol, organic solvent or mixture, thermodynamic from solid, Methanol (MeOH), Ambient) was 3000 µg/mL; in series [2] (nitromethane, organic solvent or mixture, thermodynamic from solid, Nitromethane, Ambient) it was less than 2000 µg/mL; in series [2] (tetrahydrofuran, organic solvent or mixture, thermodynamic from solid, Tetrahydrofuran (THF), Ambient) it was less than 2000 µg/mL; in series [2] (trifluoroethanol, organic solvent or mixture, thermodynamic from solid, Trifluoroethanol (TFE), Ambient), greater than 72000 µg/mL; in series [2] (trifluorotoluene, organic solvent or mixture, thermodynamic from solid, Trifluorotoluene (TFT), Ambient), less than 2000 µg/mL; in series [2] (water, thermodynamic from solid, Water, Ambient, certain samples formed a gel upon addition of water, actual solubility may differ substantially) it was 36000 µg/mL. Moreover, the “post-moisture balance XRPD (resulting material)” value was “Form D” in series [3] and “FORM D” in series [3] (listed as A). In addition, the entries for the “weight loss upon initial equilibration” value in series [3] and in series [3] (listed as A) were “about 3.9%” and ~3.9% WEIGHT LOSS UPON EQUILIBRIUM, respectively. The “weight gain on sorption” value in series [3] (from 5 to 95% RH) is given as “about 16.7%”; in series [3] (from 5 to 95% RH, listed as A), ~16.7% WEIGHT GAIN FROM 5 TO 95% RH,. Further, in series [3] (from 5 to 95% RH, listed as A), the “water corresponding to the weight gain on sorption” value was “CORRESPONDING TO 6.5 MOLES OF WATER”. In addition, the “weight loss on desorption” value is recorded as “about 16.7%” in series [3] and ~16.6% WEIGHT LOSS FROM 95 TO 5% RH in series [3] (listed as A).
On to `CC(C)(C)c1cc(NC(=O)Nc2ccc(-c3cn4c(n3)sc3cc(OCCN5CCOCC5)ccc34)cc2)no1` [Form A of the napsylate salt of Compound B1] [N-(5-tert-butyl-isoxazol-3-yl)-N′-{4-[7-(2-morpholin-4-yl-ethoxy)imidazo[2,1-b][1,3]benzothiazol-2-yl]phenyl}urea], for which the deliquescence upon storage result in series [1] (75% RH, 7 days) is “does not deliquesce; also recorded: did not deliquesce”.
On the same count and under the same terms, for `CC(C)(C)c1cc(NC(=O)Nc2ccc(-c3cn4c(n3)sc3cc(OCCN5CCOCC5)ccc34)cc2)no1` [Form B of the besylate salt of Compound B1] [N-(5-tert-butyl-isoxazol-3-yl)-N′-{4-[7-(2-morpholin-4-yl-ethoxy)imidazo[2,1-b][1,3]benzothiazol-2-yl]phenyl}urea] the value was “does not deliquesce; also recorded: did not deliquesce”.
Regarding `CC(C)(C)c1cc(NC(=O)Nc2ccc(-c3cn4c(n3)sc3cc(OCCN5CCOCC5)ccc34)cc2)no1` [Form B of the tosylate salt of Compound B1] [N-(5-tert-butyl-isoxazol-3-yl)-N′-{4-[7-(2-morpholin-4-yl-ethoxy)imidazo[2,1-b][1,3]benzothiazol-2-yl]phenyl}urea], in series [1] (setting [5]), the deliquescence upon storage entry is recorded as “does not deliquesce; also recorded: did not deliquesce”.
As for `CC(C)(C)c1cc(NC(=O)Nc2ccc(-c3cn4c(n3)sc3cc(OCCN5CCOCC5)ccc34)cc2)no1` [Form C of the sulfate salt of Compound B1] [N-(5-tert-butyl-isoxazol-3-yl)-N′-{4-[7-(2-morpholin-4-yl-ethoxy)imidazo[2,1-b][1,3]benzothiazol-2-yl]phenyl}urea], the deliquescence upon storage result in series [1] (75% RH, 7 days) is “does not deliquesce; also recorded: did not deliquesce”.
Take `CC(C)(C)c1cc(NC(=O)Nc2ccc(-c3cn4c(n3)sc3cc(OCCN5CCOCC5)ccc34)cc2)no1` [Form A of the mesylate salt of Compound B1] [N-(5-tert-butyl-isoxazol-3-yl)-N′-{4-[7-(2-morpholin-4-yl-ethoxy)imidazo[2,1-b][1,3]benzothiazol-2-yl]phenyl}urea]: the deliquescence upon storage result in series [1] (setting [5]) is given as “does not deliquesce; also recorded: did not deliquesce”.
